The record followed here is patent publication US20250197359A1, “CANNABINOID RECEPTOR MODULATING COMPOUNDS” (The U.S.A., as Represented by the Secretary, Department of …, priority 2022, published 2025).

Structures are written as SMILES.

In assay [1] the target is CB1 (UniProt P21554). The assay can be described thus: CB1 radioligand binding assay. Details: species or system human. Conditions: read-out: Ki (CB1). In outline: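 Radioligand binding to human CB1 stably expressed in CHO cells and to mouse brain membrane CB1 gave binding constants. For selected compounds, antagonism of CP55940-induced CB1 activation was measured in MPXNomad-CB1 HEK293 cells via cAMPNomad (cAMP) and ArresNomad (β-arrestin) fluorescent biosensors.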

Assay [2] addresses T1, Brain/CB1 (Mus musculus, UniProt P47746).
T1 construct: from tissue; host or cells: mouse brain membranes
As to the kind of experiment: Functional GTPγS binding, Brain/CB1. The class given is biochemical. From the text: Furthermore, the intermediates urea compounds 8a-m were chlorinated with phosphorus oxychloride in the presence of DIPEA base to form imidoyl chloride intermediate and reacted with acetamidine hydrochloride/methyl carbamimidothioate iodide/methyl carbamimidoselenoate iodide and other amines to furnish the target compounds (10a-34b) (Scheme 2, FIG. 2, Scheme 5, FIG. 5). The urea derivatives were converted to the thiourea derivatives 9a-9d by employing sodium thiosulfate. Compound 8a-b, 8e-f were converted to corresponding thiourea by employing sodium thiosulfate dissolved in water dioxane mixture and the reaction was heated to 85° C. for 2 h. […] The binding constant for the synthesized compounds were determined by using radioligand binding assay in mouse brain membranes as well as the target compounds were evaluated in vitro at the human CB1 receptor, stably expressed into Chinese hamster ovary (CHO) cells as well as mouse brain membrane CB1.
In general terms: Binding of GTPγS marks nucleotide exchange on a G protein.

T1 sequence (P47746 whole entry): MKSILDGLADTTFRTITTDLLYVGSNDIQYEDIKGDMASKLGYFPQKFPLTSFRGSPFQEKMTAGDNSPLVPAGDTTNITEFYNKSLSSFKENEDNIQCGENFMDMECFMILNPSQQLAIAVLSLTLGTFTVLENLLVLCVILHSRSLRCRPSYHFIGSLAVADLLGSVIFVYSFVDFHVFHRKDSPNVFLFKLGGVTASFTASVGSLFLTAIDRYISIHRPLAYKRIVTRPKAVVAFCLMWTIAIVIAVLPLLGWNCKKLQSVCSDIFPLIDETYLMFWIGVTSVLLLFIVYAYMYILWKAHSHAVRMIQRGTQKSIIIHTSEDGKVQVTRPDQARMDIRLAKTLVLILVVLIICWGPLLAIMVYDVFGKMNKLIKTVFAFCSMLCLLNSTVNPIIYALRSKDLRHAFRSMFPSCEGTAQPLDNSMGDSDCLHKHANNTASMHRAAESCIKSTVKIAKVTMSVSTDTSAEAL

Take `N/C(=N\C(=N\S(=O)(=O)c1ccc(C(F)(F)F)cc1)N1CCC(c2ccccc2)C(c2ccc(Cl)cc2)=N1)c1ccccn1` (stereo not shown) [Compound 10v, (Z)—N—((Z)-amino (pyridin-2-yl)methylene)-3-(4-chlorophenyl)-4-phenyl-N′-((4-(trifluoromethyl)phenyl)sulfonyl)-5,6-dihydropyridazine-1 (4H)-carboximidamide]: the Ki (in general, the equilibrium dissociation constant of an inhibitor or competing ligand from its target) in assay [1] amounted to 0.007 µM. Also, the IC50 (commonly the midpoint of a concentration-inhibition curve) in assay [2] amounted to 0.026 µM.

As to `N/C(=N\C(=N\S(=O)(=O)c1ccc(C(F)(F)F)cc1)N1CCC(c2ccccc2)C(c2ccc(Cl)cc2)=N1)c1cccs1` (stereo not shown) [Compound 10w, (Z)—N—((Z)-amino (thiophen-2-yl)methylene)-3-(4-chlorophenyl)-4-phenyl-N′-((4-(trifluoromethyl)phenyl)sulfonyl)-5,6-dihydropyridazine-1 (4H)-carboximidamide], the Ki in assay [1] worked out at 0.14 µM. In assay [2], this compound returned an IC50 of 0.234 µM.

Take `CC(C)(C)/C(N)=N/C(=N/S(=O)(=O)c1ccc(C(F)(F)F)cc1)N1CCC(c2ccccc2)C(c2ccc(Br)cc2)=N1` (stereo not shown) [Compound 10x, (Z)—N—((Z)-1-amino-2,2-dimethylpropylidene)-3-(4-bromophenyl)-4-phenyl-N′-((4-(trifluoromethyl)phenyl)sulfonyl)-5,6-dihydropyridazine-1 (4H)-carboximidamide]: the Ki in assay [1] stood at 0.0203 µM. Besides, the IC50 in assay [2] was 0.035 µM.

In the case of `C/C(N)=N/C(=N/S(=O)(=O)c1ccc(C(F)(F)F)cc1)N1CCC(c2ccccc2)C(c2ccc(Br)cc2)=N1` (stereo not shown) [Compound 10y, (Z)—N—((Z)-1-aminoethylidene)-3-(4-bromophenyl)-4-phenyl-N′-((4-(trifluoromethyl)phenyl)sulfonyl)-5,6-dihydropyridazine-1 (4H)-carboximidamide], the Ki in assay [1] is 0.0572 µM. In assay [2], this compound had an IC50 of 0.092 µM.

Turning to `N/C(=N\C(=N\S(=O)(=O)c1ccc(C(F)(F)F)cc1)N1CCC(c2ccccc2)C(c2ccc(Br)cc2)=N1)c1ccccc1F` (stereo not shown) [Compound 10z, (Z)—N—((Z)-amino (2-fluorophenyl)methylene)-3-(4-bromophenyl)-4-phenyl-N′-((4-(trifluoromethyl)phenyl)sulfonyl)-5,6-dihydropyridazine-1 (4H)-carboximidamide], the Ki in assay [1] worked out at 0.00825 µM. Moreover, the half-maximal inhibitory concentration (IC50) in assay [2] was determined as 0.049 µM.

For the compound `N/C(=N\C(=N\S(=O)(=O)c1ccc(C(F)(F)F)cc1)N1CCC(c2ccccc2)C(c2ccc(Br)cc2)=N1)c1ccc(F)cc1F` (stereo not shown) [Compound 10za, (Z)—N—((Z)-amino (2,4-difluorophenyl)methylene)-3-(4-bromophenyl)-4-phenyl-N′-((4-(trifluoromethyl)phenyl)sulfonyl)-5,6-dihydropyridazine-1 (4H)-carboximidamide], in assay [1], the Ki amounted to 0.00918 µM. The compound also yielded an IC50 in assay [2] of 0.026 µM.

Take `CC(C)(C)/C(N)=N/C(=N/S(=O)(=O)c1ccc(C(F)(F)F)cc1)N1CCC(c2ccccc2)C(c2ccc(F)cc2)=N1` (stereo not shown) [Compound 10zb, (Z)—N—((Z)-1-amino-2,2-dimethylpropylidene)-3-(4-fluorophenyl)-4-phenyl-N′-((4-(trifluoromethyl)phenyl)sulfonyl)-5,6-dihydropyridazine-1 (4H)-carboximidamide]: the inhibition constant Ki in assay [1] worked out at 0.0756 µM. Moreover, the IC50 in assay [2] turned out to be 0.478 µM.

As to `N/C(=N\C(=N\S(=O)(=O)c1ccc(C(F)(F)F)cc1)N1CCC(c2ccccc2)C(c2ccc(F)cc2)=N1)c1ccccc1F` (stereo not shown) [Compound 10zd, (Z)—N—((Z)-amino (2-fluorophenyl)methylene)-3-(4-fluorophenyl)-4-phenyl-N′-((4-(trifluoromethyl)phenyl)sulfonyl)-5,6-dihydropyridazine-1 (4H)-carboximidamide], in assay [1], the inhibition constant Ki was determined as 0.026 µM. In assay [2], this compound gave a 50% inhibitory concentration (IC50) of 0.115 µM.

In the case of `N/C(=N\C(=N\S(=O)(=O)c1ccc(C(F)(F)F)cc1)N1CCC(c2ccccc2)C(c2ccc(F)cc2)=N1)c1ccc(F)cc1F` (stereo not shown) [Compound 10ze, (Z)—N—((Z)-amino (2,4-difluorophenyl)methylene)-3-(4-fluorophenyl)-4-phenyl-N′-((4-(trifluoromethyl)phenyl)sulfonyl)-5,6-dihydropyridazine-1 (4H)-carboximidamide], in assay [1], the Ki turned out to be 0.0586 µM. This compound displayed an IC50 in assay [2] of 0.45 µM.

With `N/C(=N\C(=N\S(=O)(=O)c1ccc(C(F)(F)F)cc1)N1CCC(c2ccccc2)C(c2ccc(F)cc2)=N1)c1ccccn1` (stereo not shown) [Compound 10zf, (Z)—N—((Z)-amino (pyridin-2-yl)methylene)-3-(4-fluorophenyl)-4-phenyl-N′-((4-(trifluoromethyl)phenyl)sulfonyl)-5,6-dihydropyridazine-1 (4H)-carboximidamide], in assay [1], the Ki worked out at 0.0417 µM. Further, the IC50 in assay [2] amounted to 0.209 µM.

Take `CS/C(N)=N/C(=N/S(=O)(=O)c1ccc(C(F)(F)F)cc1)N1CCC(c2ccccc2)C(c2ccc(F)cc2)=N1` (stereo not shown) [Compound 11j, methyl (E)-N′—((Z)-(3-(4-fluorophenyl)-4-phenyl-5,6-dihydropyridazin-1 (4H)-yl)(((4-(trifluoromethyl)phenyl)sulfonyl)imino)methyl)carbamimidothioate]: in assay [1], the Ki came out at 0.093 µM. Besides, the IC50 in assay [2] was more than 1 µM.

`N#Cc1ccc(S(=O)(=O)/N=C(/N=C2\CCCCN2)N2CCC(c3ccccc3)C(c3ccc(Cl)cc3)=N2)cc1` (stereo not shown) [Compound 13b, (Z)-3-(4-chlorophenyl)-N′-((4-cyanophenyl)sulfonyl)-4-phenyl-N—((E)-piperidin-2-ylidene)-5,6-dihydropyridazine-1 (4H)-carboximidamide]: the Ki in assay [1] is 0.0198 µM. The same compound registered an IC50 in assay [2] of 0.325 µM.

Consider `O=S(=O)(/N=C(/N=C1\CCCCN1)N1CCC(c2ccccc2)C(c2ccc(Cl)cc2)=N1)c1ccc2ccccc2c1` (stereo not shown) [Compound 15, (Z)-3-(4-chlorophenyl)-N′-(naphthalen-2-ylsulfonyl)-4-phenyl-N—((E)-piperidin-2-ylidene)-5,6-dihydropyridazine-1 (4H)-carboximidamide], for which the Ki in assay [1] turned out to be 0.0341 µM. The compound further displayed an IC50 in assay [2] of 0.287 µM.

Regarding `COC(=O)CN/C(=N/S(=O)(=O)c1ccc(C(F)(F)F)cc1)N1CCC(c2ccccc2)C(c2ccc(Cl)cc2)=N1` (stereo not shown) [Compound 23, methyl (Z)-((3-(4-chlorophenyl)-4-phenyl-5,6-dihydropyridazin-1 (4H)-yl)(((4-(trifluoromethyl)phenyl)sulfonyl)imino)methyl)glycinate], the Ki in assay [1] stood at 0.00437 µM. The compound further yielded an IC50 in assay [2] of 0.0081 µM.

Consider `NC(=O)CN/C(=N/S(=O)(=O)c1ccc(C(F)(F)F)cc1)N1CCC(c2ccccc2)C(c2ccc(Cl)cc2)=N1` (stereo not shown) [Compound 24, (Z)-2-(3-(4-chlorophenyl)-4-phenyl-N′-((4-(trifluoromethyl)phenyl)sulfonyl)-1,4,5,6-tetrahydropyridazine-1-carboximidamido)acetamide], for which the Ki in assay [1] is 0.01 µM. The compound also displayed an IC50 in assay [2] of 0.033 µM.

Take `NC(=O)CN/C(=N/S(=O)(=O)c1ccc(Cl)cc1)N1CCC(c2ccccc2)C(c2ccc(Cl)cc2)=N1` (stereo not shown) [Compound 25, (Z)-2-(3-(4-chlorophenyl)-N′-((4-chlorophenyl)sulfonyl)-4-phenyl-1,4,5,6-tetrahydropyridazine-1-carboximidamido)acetamide]: the Ki in assay [1] was found to be 0.0411 µM. In assay [2], this compound yielded an IC50 of 0.207 µM.

Consider `C/C(N)=N\C(=N\S(=O)(=O)c1ccc(C)cc1)N1CCC(c2ccccc2)C(c2ccc(Cl)cc2)=N1` (stereo not shown) [Compound 101, (Z)—N—((E)-1-aminoethylidene)-3-(4-chlorophenyl)-4-phenyl-N′-tosyl-5,6-dihydropyridazine-1 (4H)-carboximidamide], for which, in assay [1], the Ki stood at 0.084 µM. In assay [2], this compound came in with an IC50 of more than 1 µM.
